Measured values taken from US20030124727A1, “Multivalent cationic lipids and methods of using same in the production of lipid particles” (priority 2001, published 2003).

Tests used:
BHK cells = test: In vitro transfection of BHK cells with plasmid DNA-cationic lipid complexes (luciferase expression); type: cell-based, hamster; details: for transfection properties compared among DODAC, TODMAC6 and TODMAC3: complexes formed from ethanol solution, no DOPE, FIG. 4; for transfection potency relative to complexes containing DODAC: cationic lipid/DOPE vesicles, LO18 luciferase plasmid, FIG. 3
Method: Lipoplexes were prepared in distilled water at pDNA concentrations ranging from 12.5-25 μg pDNA/ml at positive-to-negative charge ratios between 0.5-5. Plasmid DNA was added under vortexing to cationic LUVs (cationic lipid/DOPE 1:1). In the absence of the helper lipid DOPE, lipoplexes were prepared by addition of the cationic lipids from ethanol solutions to an aqueous solution containing the pDNA. The amount of ethanol in these formulations was between 0.4-2.3%. The lipoplexes were incubated at room temperature for 30 min, diluted to a final concentration of 2.5 μg pDNA/ml with serum-free media (Dulbecco's Modified Eaglels Medium, DMEM) and subsequently applied to BHK cells.
BHK cells, grown in DMEM supplemented with 10% fetal calf serum (FCS), 100 U/ml of penicillin and 100 μg/ml of streptomycin, were seeded in 96-well plates at a density of 1×10^4 cells per well 24 h before transfection. The next day media was removed and replaced with 100 μl of lipoplexes dispersed in serum-free DMEM (0.25 μg pDNA/100 μl), After 4 hr, lipoplexes were replaced with serum-containing DMEM and cells further incubated for 20 h. After that, the culture medium was aspirated, the cells washed twice with 100 μl of PSS and then lysed through addition of 50 μl of lysis buffer (1% Triton X-100 in PBS). Luciferase activity was measured with a Dynex Luminometer (Dynex model ML3000) using the Luciferase Assay Kit from Promega. The total protein concentration per well was determined using the BCA assay from Pierce. Means and standard deviations were calculated from three independent experiments.
(§1) DNA plasmid complexes containing TODMAC3 and TODMAC6 are usually formed by mixing plasmid DNA with preformed vesicles containing the cationic lipid mixed with equimolar amounts of the- “helper” lipid- dioleoyfphosphatidylethanolamine (DOPE) (17, 1-8). […] FIG. 3 illustrates the transfection properties of complexes prepared at cationic lipid-to-DNA charge ratios (positive to negative) ranging from 0.5 to 5.
In order to test the relative transfection potencies of DODAC, TODMAC6 and TODMAC3 a different procedure was used to associate the cationic lipid with the plasmid to form the complexes. In this method the cationic lipid dissolved in ethanol was introduced into an aqueous solution of the plasmid and DOPE was not present. […] Specifically, for charge ratios −2.5, TODMAC6 complexes gave rise to luciferase expression levels 5-20 fold higher than could be achieved with DODAC or TODMAC3.

[1] = 31P NMR polymorphic phase properties of cationic lipid/DPPS mixtures (bilayer-to-non-bilayer transition); type: physicochemical; details: for temperature at which the mixture adopts the H∥ phase / non-bilayer structure: mixture with DPPS equimolar with respect to charge, hydrated in distilled water; for 31P NMR lineshape (phase structure) at 25° C.: mixture with DPPS
Description: As noted above, the ability of cationic lipids to induce the hexagonal H∥ phase in combination with anionic lipids correlates well with their transfection properties in plasmid DNA-cationic lipid complexes. The relative ability of cationic lipids to induce the H∥ phase can be ascertained by measuring the bilayer-to-non-bilayer transition temperature (Tc) of the cationic lipid in equimolar mixtures (with respect to charge) with an anionic phospholipid such as 1,2-dipalmitoyl-sn-glycero-3-[phospho-L-serine] (DPPS). The bilayer-to-non-bilayer transition can be conveniently monitored employing ^31P NMR techniques (12).
To evaluate the polymorphic phase properties of mixtures of TODMAC3 and TODMAC6 with DPPS, lipid mixtures containing 40-50 mg DPPS and appropriate molar ratios of cationic lipids N,N-dioleyl-N-N-dimethylammonium chloride (DODAC), TODMAC3, and TODMAC6 were prepared by drying from chloroform solution, placed in 10 mm NMR tubes and hydrated with 1.5 mL distilled water. Free induction decays (FIDs) corresponding to 1000 scans were obtained by using a […] 60° pulse with a […] interpulse delay and a spectral width of 25,000 Hz. A gated two-level proton decoupling was used to ensure sufficient decoupling with minimum sample heating. An exponential multiplication corresponding to 50 Hz of line broadening was applied to the FIDs prior to Fourier transformation. The sample temperature (±1° C.) was regulated using a Bruker B-VT1000 variable temperature unit. Chemical shifts were referenced to 85% phosphoric acid as an external standard.

[2] = Preparation of vesicles / bilayer structures on dispersion in aqueous medium; type: physicochemical; details: for preparation of vesicles from cationic lipid/DOPE mixtures: equimolar mixture with DOPE, hydration of lipid film and extrusion; for formation of bilayer structures on dispersion in an aqueous medium: in the presence and absence of DOPE
Method: To prepare large unilamellar vesicles (LUV), mixtures of cationic lipids and DOPE in chloroform were dried under a stream of nitrogen gas and the residual solvent removed under high vacuum for 2 hours. The resulting lipid films were hydrated with distilled water. LUVs were obtained by extruding the lipid dispersions 10 times through two stacked 100-nm pore size polycarbonate filters (Costar Nuclepore polycarbonate membrane, Lipex Biomembranes extruder) (15). Phospholipid concentrations were determined by the inorganic phosphorus assays according to Fiske and Subbarow (16).
as §1

SMILES: CCCCCCCC/C=C\CCCCCCCC[N+](C)(C)CCCCCCCC/C=C\CCCCCCCC.[Cl-] [DODAC, N,N-dioleyl-N-N-dimethylammonium chloride, reference compound]
- transfection properties compared among DODAC, TODMAC6 and TODMAC3 (BHK cells; charge ratios of two and lower): superior
- temperature at which the mixture adopts the H∥ phase / non-bilayer structure ([1]; 31P NMR): > 35 °C
- 31P NMR lineshape (phase structure) at 25° C. [1]: bilayer structure

SMILES: CCCCCCCC/C=C\CCCCCCCC[N+](C)(CCCCCCCC/C=C\CCCCCCCC)CCC[N+](C)(CCCCCCCC/C=C\CCCCCCCC)CCCCCCCC/C=C\CCCCCCCC.[Cl-].[Cl-] [TODMAC3, N,N,N1,N1-Tetraoleyl.N,N′-dimethyl-1,3-propanediammonium Chloride]
- preparation of vesicles from cationic lipid/DOPE mixtures [2]: could not be prepared
- formation of bilayer structures on dispersion in an aqueous medium [2]: does not
- temperature at which an H∥ component is visible (limited subset of the DPPS; bulk remains bilayer) ([1]; TODMAC3/DPPS 0.5:1 mol:mol (equimolar in charge), 31P NMR): ≤ 15 °C
- temperature of apparently complete H∥ organization ([1]; TODMAC3/DPPS ratio 2:1 on a charge basis): ≥ 25 °C
- phase properties of equimolar mixture with DPPS ([1]; equimolar (mol) proportions of TODMAC3 and DPPS, compared with 0.5:1): increased preference for H∥ phase structure

SMILES: CCCCCCCC/C=C\CCCCCCCC[N+](C)(CCCCCCCC/C=C\CCCCCCCC)CCCCCC[N+](C)(CCCCCCCC/C=C\CCCCCCCC)CCCCCCCC/C=C\CCCCCCCC.[Cl-].[Cl-] [TODMAC6, N,N,N′,N′-Tetraoleyl-N,N′-dimethyl-1,6-hexanediammonium chloride]
- transfection potency relative to complexes containing DODAC (BHK cells; charge ratios higher than two (up to 5)): greater
- transfection potency relative to complexes containing DODAC (BHK cells; charge ratios of two or lower): comparable to or slightly lower
- transfection properties compared among DODAC, TODMAC6 and TODMAC3 (BHK cells; charge ratios above two): superior to both DODAC and TODMAC3
- luciferase expression levels higher than could be achieved with DODAC or TODMAC3 (BHK cells; complexes without DOPE, charge ratios −2.5): 5-20 fold
- preparation of vesicles from cationic lipid/DOPE mixtures [2]: could be readily prepared
- formation of bilayer structures on dispersion in an aqueous medium [2]: readily forms bilayer structures
- temperature at which the mixture adopts the H∥ phase / non-bilayer structure ([1]; 31P NMR): ~30 °C
- 31P NMR lineshape (phase structure) at 25° C. [1]: bilayer structure
